Patent US20220017833A1, “Methods and Compositions for Scavenging Sulfides from Hydrocarbon Fluids and Aqueous Streams” (Nexgen Oilfield Chemicals, LLC, priority 2019, published 2022)

Assays:
[1] = octanol-water partition logarithm; source not stated; cited from earlier work
[2] = Solution Homogeneity Test; format: physicochemical; settings: Table 6, GID, water and alcohols, % composition
Excerpt: In one aspect, as two-phase reaction products are problematic, scavenger system homogeneity is desired. The two phases could be emulsified or otherwise finely dispersed, but in practice, even fine, seemingly stable dispersions eventually separate or stratify in extended storage or critical use and are not robust enough for practical use. They are not allowed, for example, to be fed through capillaries for fear of plugging them. In this pass/fail test, a sample is held up for visual inspection in a backlit clear vial. A clear, single-phase, homogeneous solution is a pass. Anything else is a fail.

[3] = Short Reaction Time Capacity Test; settings: for contribution to the BT capacity (coefficient of best fit equation) / contribution to the FD capacity (coefficient of best fit equation): Short Reaction Time Capacity Test, Table 2 compositions
Excerpt: (§1) Referring now to FIG. 1, therein is schematically depicted a sulfide scavenger testing system 100 comprising a gas source 2, a flow regulator 4, gas treatment vessel 6, and a sulfide measurement device 8. In one testing embodiment, gas (not shown) is flowed from gas source 2 via gas feed piping 10 into flow regulator 4, which regulates gas flow to gas treatment vessel 6 via regulated gas feed piping 12. The regulated gas flows into gas treatment vessel 6 via a bottom inlet 14 thereof, where it comes into contact with a volume of liquid 16 comprising a sulfide scavenger system (not separately labeled). The gas, having been treated by the liquid, flows out of a top end 18 of gas treatment vessel 6 and flows into sulfide measurement device 8 via treated gas outlet piping 20.
In one embodiment, gas flow from the flow regulator 4 is controlled such that the gas is flowed into the gas treatment vessel 6 at a flow rate of 100 mL/min. up to 500 mL/min. In one embodiment, a gas sparging device, such as a fine pore frit (not shown), is utilized to better distribute the gas into the scavenger liquid. In one embodiment, the gas treatment vessel 6 contains about 20 g of a liquid H2S scavenger, such as one or more diaminols/diaminacetals in a chemical system as described above. In one aspect, to the extent possible, H2S and/or CO2 are scavenged from the gas by the scavenger and the treated (“sweet”) gas exits top end 18 of treatment vessel 6. In one embodiment, sulfide measurement device 8 monitors the concentration of H2S leaving treatment vessel 6. in the gas phase. In other embodiments (not shown), a CO2 measurement device may be similarly employed to monitor the concentration of CO2 leaving treatment vessel 6 in the gas phase.
(§2) In one embodiment, gas is flowed through sulfide scavenger testing system 100 until the outlet H2S concentration reaches a 4,000 ppm target, at which point the test is concluded. This relative time duration before the target is reached is used to compare H2S scavenger capacity given the kinetics of each sulfide scavenger system. The longer the duration, the better the capacity.
(§3) The fine bubbles produced rise slowly, providing plenty of time, plenty of surface area, and a short path through which the H2S must diffuse to the scavenger in the liquid 16. Detector 8 on the outlet line 20 is used to measure H2S concentration in the exiting gas. The times to first detection (FD), at a threshold of 15 ppm, and to complete breakthrough (BT), at the detector saturation of 4000 ppm (0.4%), are recorded. This test is designed to measure the effective scavenging capacity in applications with long contact times.
This test is the same as the Long Reaction Time Capacity Test, but without the gas sparging device, so as to produce larger bubbles, and at a higher feed rate of 200 mL/min, after the first 8 minutes at 100 mL/min. The larger bubbles rise quickly through the liquid 16, providing little time, little surface area, and a long path through which the H2S must diffuse to the scavenger in the liquid. This test is designed to measure the effective scavenging capacity in applications with short contact times. It is far more reaction rate dependent than the Long Reaction Time Capacity and so is a more critical and differentiating test.
With triazine, one H2S reacts twice with the same molecule of triazine, replacing one amine, so the rate is “first order”, meaning proportional to the concentration of triazine.

[4] = Long Reaction Time Capacity Test
Excerpt: as §1
In one embodiment, the gas contained in gas source 2 consists substantially of about 15% H2S, and about 3% CO2, with the remainder being Methane. In one embodiment, gas flow from the flow regulator 4 is controlled such that the gas is flowed into the gas treatment vessel 6 at a flow rate of 100 mL/min. up to 500 mL/min. In one embodiment, a gas sparging device, such as a fine pore frit (not shown), is utilized to better distribute the gas into the scavenger liquid. In one embodiment, the gas treatment vessel 6 contains about 20 g of a liquid H2S scavenger, such as one or more diaminols/diaminacetals in a chemical system as described above. In one aspect, to the extent possible, H2S and/or CO2 are scavenged from the gas by the scavenger and the treated (“sweet”) gas exits top end 18 of treatment vessel 6. In one embodiment, sulfide measurement device 8 monitors the concentration of H2S leaving treatment vessel 6. in the gas phase. In other embodiments (not shown), a CO2 measurement device may be similarly employed to monitor the concentration of CO2 leaving treatment vessel 6 in the gas phase.
as §2
as §3, with “In this test, methane containing 15% H2S and 3% CO2 by weight is sparged via a fine pore frit (not shown) at 100 mL/min through a column of 20 g of scavenger solution (See FIG. 1). The fine” for “The fine”
Note that the true total capacity of a scavenger with infinite time to react is simply equal to the stoichiometry of the reaction—the moles of H2S consumable per mole of scavenging molecule, which can be calculated. This Long Reaction Time Capacity measurement falls short of that ultimate stoichiometric capacity and so is still reaction rate dependent, just less so than the Short Reaction Time Capacity Test.

[5] = 20 g test, Eq/test Triazine 0.068, GIDAc 0.157, GIDA 0.076 (7.50 g MeOH, 2.50 g BuOH)
[6] = 20 g test, Triazine 7.50 g + 12.50 g water, GIDAc 11.00 g as GID, 6.00 g MeOH, 3.00 g BuOH, GIDA 6.68 g as GID, 3.32 g water, 7.50 g MeOH, 2.50 g BuOH
[7] = 20 g test, Eq/test Triazine 0.068, GIDAc 0.185, GIDA 0.076
[8] = 20 g test, Triazine 7.50 g + 12.50 g water, GIDAc 13.00 g as GID + 7.00 g MeOH, GIDA 6.68 g as GID, 3.32 g water, 8.00 g MeOH, 2.00 g BuOH

Compound: CCCCC(CC)CO (stereo not shown) [2EHOH, 2-Ethylhexanol]
- LogP [1]: 2.8

Compound: OCCOCCO [DEG, Diethylene Glycol]
- Solution Homogeneity [2]: Fail
- Solution Homogeneity ([2]; listed as diethylene glycol): do not work
- LogP [1]: −1.5

Compound: OCCO [EG, Ethylene Glycol]
- Solution Homogeneity [2]: Fail
- Solution Homogeneity ([2]; listed as Ethylene glycol): do not work
- LogP [1]: −1.7

Compound: CC(C)N=CC=NC(C)C [GID, N,N′-di(propan-2-yl)ethane-1,2-diimine]
- contribution to the BT capacity (coefficient of best fit equation) [3]: 102 minutes per equivalent
- contribution to the FD capacity (coefficient of best fit equation) [3]: 92 minutes per equivalent
- LogP [1]: 2.3

Compound: O [H2O, Water]
- LogP [1]: −1.4

Compound: CC(=O)CC(C)C [MIBK, methyl isobutyl ketone]
- contribution to the BT capacity (coefficient of best fit equation) [3]: 601 minutes per equivalent
- contribution to the FD capacity (coefficient of best fit equation) [3]: 515 minutes per equivalent

Compound: CO [MeOH, Methanol]
- LogP [1]: −0.7

Compound: CC(O)CO (stereo not shown) [PG, Propylene Glycol]
- LogP [1]: −1.3

Compound: OCCN1CN(CCO)CN(CCO)C1 [Triazine, reference compound]
- Min/Eq BT [3, 5]: 380 Min/Eq
- Min/Eq FD [3, 5]: 365 Min/Eq
- Min to BT [3, 6]: 26 min
- Min to FD [3, 6]: 25 min
- molar capacity at short reaction times (comparison, accounting for molar concentration) ([3]; Graph 1 (FIG. 3)): lower molar capacity at short reaction times
- Min/Eq BT [4, 7]: 994 Min/Eq
- Min/Eq FD [4, 7]: 965 Min/Eq
- Min to BT [4, 8]: 68 min
- Min to FD [4, 8]: 66 min
- molar capacity at long reaction times (comparison, accounting for molar concentration) ([4]; Graph 1 (FIG. 3)): greater molar capacity than GIDAc at long reaction times

Compound: CCCCCCCO [n-C7OH, n-Heptanol]
- LogP [1]: 2.5

Compound: CCCCCCCCO [n-C8OH, n-Octanol]
- LogP [1]: 3.0

Compound: Hexylene Glycol [HG]
- LogP [1]: 0.0
